1 compound from PMC5218480 (PLoS ONE, 2017) can be followed below.

For the assay, the system named is MV-4-11 cells. As to the kind of experiment: Gene expression microarray analysis (Affymetrix PrimeView) and GSEA. It is filed as cell-based, human. Details: RFU PODN (11730768_x_at) / Fold change /veh PODN (11730768_x_at) / RFU LINC00158 (11744669_a_at) / Fold change /veh LINC00158 (11744669_a_at) / RFU DUSP10 (11751237_a_at) / Fold change /veh DUSP10 (11751237_a_at) / RFU ID3 (11757404_x_at) / Fold change /veh ID3 (11757404_x_at) / RFU PLEKHG5 (11737974_s_at) / Fold change /veh PLEKHG5 (11737974_s_at) / RFU LRRC4B (11730491_at) / Fold change /veh LRRC4B (11730491_at) / RFU GIMAP4 (11747438_a_at) / Fold change /veh GIMAP4 (11747438_a_at) / RFU KRT8 (11758183_x_at) / Fold change /veh KRT8 (11758183_x_at) / RFU CNN1 (11734310_a_at) / Fold change /veh CNN1 (11734310_a_at) / RFU VPS37D (11726825_at) / Fold change /veh VPS37D (11726825_at) / RFU C10orf10 (11716522_x_at) / Fold change /veh C10orf10 (11716522_x_at) / RFU KIR2DL2 /// KIR2DL4 /// KIR2DL5A /// KIR2DL5B /// KIR2DS1 /// KIR2DS2 /// KIR2DS3 /// KIR2DS4 /// KIR3DL3 /// KIR3DL3 /// KIR3DS1 (11738374_at) / Fold change /veh KIR2DL2 /// KIR2DL4 /// KIR2DL5A /// KIR2DL5B /// KIR2DS1 /// KIR2DS2 /// KIR2DS3 /// KIR2DS4 /// KIR3DL3 /// KIR3DL3 /// KIR3DS1 (11738374_at) / RFU C1QL1 (11718748_at) / Fold change /veh C1QL1 (11718748_at) / RFU TMPRSS4 (11747572_a_at) / Fold change /veh TMPRSS4 (11747572_a_at) / RFU HAMP (11756126_x_at) / Fold change /veh HAMP (11756126_x_at) / RFU RNFT2 (11725882_a_at) / Fold change /veh RNFT2 (11725882_a_at) / RFU NR4A2 (11747474_a_at) / Fold change /veh NR4A2 (11747474_a_at) / RFU ABCC12 (11746883_a_at) / Fold change /veh ABCC12 (11746883_a_at) / RFU TMEM136 (11760407_x_at) / Fold change /veh TMEM136 (11760407_x_at) / RFU CLDN22 /// WWC2 (11732394_at) / Fold change /veh CLDN22 /// WWC2 (11732394_at) / RFU HLA-DPB1 (11760878_x_at) / Fold change /veh HLA-DPB1 (11760878_x_at) / RFU SPINT1 (11716480_a_at) / Fold change /veh SPINT1 (11716480_a_at) / RFU GAP43 (11754022_s_at) / Fold change /veh GAP43 (11754022_s_at) / RFU A4GNT (11735810_at) / Fold change /veh A4GNT (11735810_at) / RFU PRB3 (11715151_x_at) / Fold change /veh PRB3 (11715151_x_at) / RFU TUBB4B (11761932_at) / Fold change /veh TUBB4B (11761932_at) / RFU CAPN14 (11732068_a_at) / Fold change /veh CAPN14 (11732068_a_at) / RFU TMCC2 (11721928_a_at) / Fold change /veh TMCC2 (11721928_a_at) / RFU IRGQ (11745062_a_at) / Fold change /veh IRGQ (11745062_a_at) / RFU FAM174B (11720279_a_at) / Fold change /veh FAM174B (11720279_a_at) / RFU TMPRSS4 (11748680_a_at) / Fold change /veh TMPRSS4 (11748680_a_at) / RFU FAM212B (11763350_a_at) / Fold change /veh FAM212B (11763350_a_at) / RFU PLEKHG5 (11743358_a_at) / Fold change /veh PLEKHG5 (11743358_a_at) / RFU ZSCAN30 (11745921_a_at) / Fold change /veh ZSCAN30 (11745921_a_at) / RFU CMKLR1 (11741424_a_at) / Fold change /veh CMKLR1 (11741424_a_at) / RFU LOC101060620 /// MAPK8IP1 (11723275_at) / Fold change /veh LOC101060620 /// MAPK8IP1 (11723275_at) / RFU SPTSSB (11747773_x_at) / Fold change /veh SPTSSB (11747773_x_at) / RFU PRSS12 (11739890_at) / Fold change /veh PRSS12 (11739890_at) / RFU BIN1 (11741810_x_at) / Fold change /veh BIN1 (11741810_x_at) / RFU WNT11 (11732464_a_at) / Fold change /veh WNT11 (11732464_a_at) / RFU C10orf10 (11716521_a_at) / Fold change /veh C10orf10 (11716521_a_at) / RFU C5orf56 (11738089_at) / Fold change /veh C5orf56 (11738089_at) / RFU CYB561 (11721691_x_at) / Fold change /veh CYB561 (11721691_x_at) / RFU ANKRD19P (11752326_a_at) / Fold change /veh ANKRD19P (11752326_a_at) / RFU OR2T12 /// OR2T33 /// OR2T8 (11738714_s_at) / Fold change /veh OR2T12 /// OR2T33 /// OR2T8 (11738714_s_at) / RFU VCAN (11748164_a_at) / Fold change /veh VCAN (11748164_a_at) / RFU JSRP1 (11732532_at) / Fold change /veh JSRP1 (11732532_at) / RFU KRTAP10-11 (11738290_x_at) / Fold change /veh KRTAP10-11 (11738290_x_at) / RFU MYO3A (11730013_a_at) / Fold change /veh MYO3A (11730013_a_at) / RFU EBF3 (11725865_a_at) / Fold change /veh EBF3 (11725865_a_at) / RFU CAMK2N1 (11719241_x_at) / Fold change /veh CAMK2N1 (11719241_x_at) / RFU C5orf56 (11738088_a_at) / Fold change /veh C5orf56 (11738088_a_at) / RFU OLFML3 (11715873_a_at) / Fold change /veh OLFML3 (11715873_a_at) / RFU LOC100653217 /// NTM (11731650_a_at) / Fold change /veh LOC100653217 /// NTM (11731650_a_at) / RFU MAPK11 (11762145_a_at) / Fold change /veh MAPK11 (11762145_a_at) / RFU FIZ1 (11724087_x_at) / Fold change /veh FIZ1 (11724087_x_at) / RFU OASL (11726364_x_at) / Fold change /veh OASL (11726364_x_at) / RFU SOX15 (11748057_x_at) / Fold change /veh SOX15 (11748057_x_at) / RFU CD79A (11719716_a_at) / Fold change /veh CD79A (11719716_a_at) / RFU HIST1H1D (11736915_at) / Fold change /veh HIST1H1D (11736915_at) / RFU CASKIN2 (11723855_a_at) / Fold change /veh CASKIN2 (11723855_a_at) / RFU LOC730098 (11760151_x_at) / Fold change /veh LOC730098 (11760151_x_at) / RFU OR4N2 (11742367_at) / Fold change /veh OR4N2 (11742367_at) / RFU PRRT2 (11749266_a_at) / Fold change /veh PRRT2 (11749266_a_at) / RFU SNX32 (11753110_a_at) / Fold change /veh SNX32 (11753110_a_at) / RFU CDHR5 (11726645_a_at) / Fold change /veh CDHR5 (11726645_a_at) / RFU RCAN1 (11760418_a_at) / Fold change /veh RCAN1 (11760418_a_at) / RFU FAM167A (11723789_a_at) / Fold change /veh FAM167A (11723789_a_at) / RFU FAM26E (11764081_at) / Fold change /veh FAM26E (11764081_at) / RFU ISYNA1 (11749810_s_at) / Fold change /veh ISYNA1 (11749810_s_at) / RFU ACY1 (11761880_at) / Fold change /veh ACY1 (11761880_at) / RFU 11764098_at / Fold change /veh 11764098_at / RFU SAMD14 (11745864_x_at) / Fold change /veh SAMD14 (11745864_x_at) / RFU NPB (11741838_a_at) / Fold change /veh NPB (11741838_a_at) / RFU TMPRSS6 (11731388_a_at) / Fold change /veh TMPRSS6 (11731388_a_at) / RFU KRTAP10-2 (11738614_at) / Fold change /veh KRTAP10-2 (11738614_at) / RFU ARHGAP8 /// PRR5-ARHGAP8 (11727945_x_at) / Fold change /veh ARHGAP8 /// PRR5-ARHGAP8 (11727945_x_at) / RFU KRTAP5-7 /// NADSYN1 (11734609_at) / Fold change /veh KRTAP5-7 /// NADSYN1 (11734609_at) / RFU RASL12 (11751679_a_at) / Fold change /veh RASL12 (11751679_a_at) / RFU CDKN2B (11736163_a_at) / Fold change /veh CDKN2B (11736163_a_at) / RFU PRF1 (11729649_at) / Fold change /veh PRF1 (11729649_at) / RFU, ZNF638 /// ZNF638-IT1 / Fold change vs veh, ZNF638 /// ZNF638-IT1 / RFU, PANK3 / Fold change vs veh, PANK3 / RFU, SH3YL1 / Fold change vs veh, SH3YL1 / RFU, ZEB2 / Fold change vs veh, ZEB2 / RFU, NRIP1 / Fold change vs veh, NRIP1 / RFU, PTTG1IP / Fold change vs veh, PTTG1IP / RFU, CAPN2 / Fold change vs veh, CAPN2 / RFU, MED14 / Fold change vs veh, MED14 / RFU, SNORA58 / Fold change vs veh, SNORA58 / RFU, C1orf63 / Fold change vs veh, C1orf63 / RFU, LRRFIP1 / Fold change vs veh, LRRFIP1 / RFU, NDUFAF7 / Fold change vs veh, NDUFAF7 / RFU, SLC12A2 / Fold change vs veh, SLC12A2 / RFU, IBTK / Fold change vs veh, IBTK / RFU, ESF1 / Fold change vs veh, ESF1 / Fold change vs veh, TMEM50B / RFU, TAOK1 / Fold change vs veh, TAOK1 / RFU, ACBD3 / Fold change vs veh, ACBD3 / RFU, TMA16 / Fold change vs veh, TMA16 / RFU, RWDD3 / Fold change vs veh, RWDD3 / RFU, BCAT1 / Fold change vs veh, BCAT1 / RFU, EDEM3 / Fold change vs veh, EDEM3 / RFU, TMEM33 / Fold change vs veh, TMEM33 / RFU, WDR75 / Fold change vs veh, WDR75 / RFU, AHCTF1 / Fold change vs veh, AHCTF1 / RFU, TFRC / Fold change vs veh, TFRC / RFU, ZDHHC17 / Fold change vs veh, ZDHHC17 / RFU, NOM1 / Fold change vs veh, NOM1 / RFU, ARL8B / Fold change vs veh, ARL8B / RFU, ZBTB11 / Fold change vs veh, ZBTB11 / RFU, TAMM41 / Fold change vs veh, TAMM41 / RFU, KIAA1704 /// LOC100996395 / Fold change vs veh, KIAA1704 /// LOC100996395 / RFU, ING1 / Fold change vs veh, ING1 / RFU, TRMT61B / Fold change vs veh, TRMT61B / RFU, FUBP3 / Fold change vs veh, FUBP3 / RFU, TP53 / Fold change vs veh, TP53 / RFU, TNKS2 / Fold change vs veh, TNKS2 / RFU, ZFP14 / Fold change vs veh, ZFP14 / RFU, ACTR2 / Fold change vs veh, ACTR2 / RFU, PPP3R1 / Fold change vs veh, PPP3R1 / RFU, PIK3R1 / Fold change vs veh, PIK3R1 / RFU, HNRNPA1 / Fold change vs veh, HNRNPA1 / RFU, RNF170 / Fold change vs veh, RNF170 / RFU, ZNF28 / Fold change vs veh, ZNF28 / RFU, RNGTT / Fold change vs veh, RNGTT / RFU, OGT / Fold change vs veh, OGT / RFU, BRD1 / Fold change vs veh, BRD1 / RFU, MARS / Fold change vs veh, MARS / RFU, ZNF655 / Fold change vs veh, ZNF655 / RFU, FAHD1 / Fold change vs veh, FAHD1 / RFU, BDP1 / Fold change vs veh, BDP1 / RFU, LRRCC1 / Fold change vs veh, LRRCC1 / RFU, ARID1A / Fold change vs veh, ARID1A / RFU, ZNF146 / Fold change vs veh, ZNF146 / RFU, ZNF330 / Fold change vs veh, ZNF330 / RFU, GPN3 / Fold change vs veh, GPN3 / RFU, C9orf123 / Fold change vs veh, C9orf123 / RFU, N4BP2L2 / Fold change vs veh, N4BP2L2 / RFU, ARFIP1 / Fold change vs veh, ARFIP1 / RFU, FAM179B / Fold change vs veh, FAM179B / RFU, BCL10 / Fold change vs veh, BCL10 / RFU, UHRF1BP1L / Fold change vs veh, UHRF1BP1L / RFU, BET1 / Fold change vs veh, BET1 / RFU, CNOT2 / Fold change vs veh, CNOT2 / RFU, ZNF268 / Fold change vs veh, ZNF268 / Fold change vs veh, ZNF507 / RFU, DGCR2 / Fold change vs veh, DGCR2 / RFU, WDSUB1 / Fold change vs veh, WDSUB1 / Fold change vs veh, HSP90B1 /// MIR3652 / RFU, ADSS / Fold change vs veh, ADSS / RFU, GK / Fold change vs veh, GK / RFU, ZNF148 / Fold change vs veh, ZNF148 / RFU, TAF9 / Fold change vs veh, TAF9 / RFU, SLC1A5 / Fold change vs veh, SLC1A5 / RFU, SLMO2 / Fold change vs veh, SLMO2 / RFU, ABCC4 / Fold change vs veh, ABCC4 / RFU, LOC101060439 /// RAP1B / Fold change vs veh, LOC101060439 /// RAP1B / RFU, RFX7 / Fold change vs veh, RFX7 / RFU, GTPBP10 / Fold change vs veh, GTPBP10 / RFU, CNEP1R1 / Fold change vs veh, CNEP1R1 / RFU, BIVM-ERCC5 /// ERCC5 / Fold change vs veh, BIVM-ERCC5 /// ERCC5 / RFU, ILF3 / Fold change vs veh, ILF3 / RFU 11762660_at / Fold change /veh 11762660_at / RFU VCAN (11757783_s_at) / Fold change /veh VCAN (11757783_s_at) / RFU DDX43 (11728927_at) / Fold change /veh DDX43 (11728927_at) / RFU KRT8 (11758188_x_at) / Fold change /veh KRT8 (11758188_x_at) / RFU NKD1 (11759106_at) / Fold change /veh NKD1 (11759106_at) / RFU SRD5A1 (11742802_a_at) / Fold change /veh SRD5A1 (11742802_a_at) / RFU TPSAB1 /// TPSB2 (11721975_s_at) / Fold change /veh TPSAB1 /// TPSB2 (11721975_s_at) / RFU GSTM3 (11746129_a_at) / Fold change /veh GSTM3 (11746129_a_at) / RFU IL23R (11737362_x_at) / Fold change /veh IL23R (11737362_x_at) / RFU TMEM51 (11727254_a_at) / Fold change /veh TMEM51 (11727254_a_at) / RFU PIWIL2 (11732686_x_at) / Fold change /veh PIWIL2 (11732686_x_at) / RFU ORM1 (11744905_x_at) / Fold change /veh ORM1 (11744905_x_at) / RFU CCDC152 (11743942_at) / Fold change /veh CCDC152 (11743942_at) / RFU ECM1 (11717891_a_at) / Fold change /veh ECM1 (11717891_a_at) / RFU IL23R (11748794_a_at) / Fold change /veh IL23R (11748794_a_at) / RFU TNFAIP8L3 (11732012_x_at) / Fold change /veh TNFAIP8L3 (11732012_x_at) / RFU MBOAT4 (11741988_at) / Fold change /veh MBOAT4 (11741988_at) / RFU 11764193_at / Fold change /veh 11764193_at / RFU TMEM53 (11763286_at) / Fold change /veh TMEM53 (11763286_at) / RFU MAGEB2 (11727129_at) / Fold change /veh MAGEB2 (11727129_at) / RFU TMEM200A (11744735_a_at) / Fold change /veh TMEM200A (11744735_a_at) / RFU CCDC152 (11751479_a_at) / Fold change /veh CCDC152 (11751479_a_at) / RFU FAM211A (11726209_a_at) / Fold change /veh FAM211A (11726209_a_at) / RFU RGS16 (11746705_a_at) / Fold change /veh RGS16 (11746705_a_at) / RFU VCAN (11755009_s_at) / Fold change /veh VCAN (11755009_s_at) / RFU RHOB (11743442_s_at) / Fold change /veh RHOB (11743442_s_at) / RFU RGS16 (11720943_a_at) / Fold change /veh RGS16 (11720943_a_at) / RFU RGS16 (11720944_at) / Fold change /veh RGS16 (11720944_at) / RFU, VPS4B / Fold change vs veh, VPS4B / RFU, CREB1 / Fold change vs veh, CREB1 / RFU, DNAJC13 / Fold change vs veh, DNAJC13 / RFU, GNAQ / Fold change vs veh, GNAQ / RFU, CDK5R1 / Fold change vs veh, CDK5R1 / RFU, ZRANB3 / Fold change vs veh, ZRANB3 / RFU, CUL4A / Fold change vs veh, CUL4A / RFU, CCNY / Fold change vs veh, CCNY / RFU, UFL1 / Fold change vs veh, UFL1 / RFU, COG3 / Fold change vs veh, COG3 / RFU, DIAPH2 / Fold change vs veh, DIAPH2 / RFU, SKA2 / Fold change vs veh, SKA2 / RFU, AFF3 / Fold change vs veh, AFF3 / RFU, LMF1 / Fold change vs veh, LMF1 / RFU, IPO11 / Fold change vs veh, IPO11 / RFU, DFFB / Fold change vs veh, DFFB / RFU, FOXP1 / Fold change vs veh, FOXP1 / RFU, CARD8 / Fold change vs veh, CARD8 / RFU, STRN3 / Fold change vs veh, STRN3 / RFU, ADK / Fold change vs veh, ADK / RFU, RASSF2 / Fold change vs veh, RASSF2 / RFU, WIPF1 / Fold change vs veh, WIPF1 / RFU, LARP1B / Fold change vs veh, LARP1B / RFU, RASA1 / Fold change vs veh, RASA1 / RFU, RB1 / Fold change vs veh, RB1 / RFU, PPFIA1 / Fold change vs veh, PPFIA1 / RFU, MAT2A / Fold change vs veh, MAT2A / RFU, CCT5 / Fold change vs veh, CCT5 / RFU, WDR92 / Fold change vs veh, WDR92 / RFU, CUX1 / Fold change vs veh, CUX1 / RFU, TTC7A / Fold change vs veh, TTC7A / RFU, TMEM135 / Fold change vs veh, TMEM135 / RFU, DEPTOR / Fold change vs veh, DEPTOR / RFU, CPM / Fold change vs veh, CPM / RFU, DNAJB6 / Fold change vs veh, DNAJB6 / RFU, CACNA2D3 / Fold change vs veh, CACNA2D3 / RFU, DTX4 / Fold change vs veh, DTX4 / RFU, TFCP2 / Fold change vs veh, TFCP2 / RFU, GMCL1 /// GMCL1P1 / Fold change vs veh, GMCL1 /// GMCL1P1 / RFU, AEBP2 / Fold change vs veh, AEBP2 / RFU, SNHG1 /// SNORD22 /// SNORD25 /// SNORD26 /// SNORD27 /// SNORD28 /// SNORD29 /// SNORD31 / Fold change vs veh, SNHG1 /// SNORD22 /// SNORD25 /// SNORD26 /// SNORD27 /// SNORD28 /// SNORD29 /// SNORD31 / Fold change (Aza/veh), C12orf56 (ProbeSet 11735607_a_at) / Fold change (ACY-1035/veh), C12orf56 (ProbeSet 11735607_a_at) / Fold change (Aza/veh), FGFR1OP (ProbeSet 11751329_s_at) / Fold change (ACY-1035/veh), FGFR1OP (ProbeSet 11751329_s_at) / Fold change (Aza/veh), VPS36 (ProbeSet 11739960_a_at) / Fold change (ACY-1035/veh), VPS36 (ProbeSet 11739960_a_at) / RFU SYPL1 (11715823_x_at) / Fold change /veh SYPL1 (11715823_x_at) / RFU IGFBP7 (11715501_s_at) / Fold change /veh IGFBP7 (11715501_s_at) / RFU REEP3 (11722064_at) / Fold change /veh REEP3 (11722064_at) / RFU IGLL1 (11728026_x_at) / Fold change /veh IGLL1 (11728026_x_at): dose or concentration left out as unconfirmed. As to conditions: MV-4-11 cells, 48 hours.

`Nc1ncn([C@@H]2O[C@H](CO)[C@@H](O)[C@H]2O)c(=O)n1` [azacitidine]: the “Fold change /veh IL23R (11748794_a_at)” value amounted to 1.48.
